# Literature values, collected in paper PMC10969742, “A Phase I Study of the Oral Dual-Acting Pan-PI3K/mTOR Inhibitor Bimiralisib in Patients with Advanced Solid Tumors” (Cancers, 2024).
# Set-up: method as in PMID 28490463
# Conditions: intermittent versus daily dosing; cited from earlier work
compound,measurement,value
Nc1nc2cc(-c3ccc4ncc(C(=O)N5CCOCC5)n4c3)ccc2o1 [TAK-117],Safety profile of intermittent dosing,acceptable safety profile
